According to patent US20060246492A1, “Method for predicting responsiveness to drugs” (The General Hospital Corporation, priority 2005, published 2006):
Entries after “also recorded” stand apart in the source; their conditions may differ.

What was measured:
MET = MET (Homo sapiens, UniProt P08581); details: nanomolar concentrations; cited from earlier work
MLP-29 cells = details: cited from earlier work
[1] = system: GTL-16 gastric carcinoma cells; details: cited from earlier work
NIH3T3 fibroblasts = details: cited from earlier work
AGS = assay: MTT viability assay, gastric cancer cell line; type: cell-based; details: Homo sapiens, 96 h
Protocol: (§1) Cells were plated in 96-well plate in medium containing 4% fetal bovine serum at approximately 4000 cells/well. […] Cell viability was measured 96 h later using the MTT assay. Briefly, 10 ul of 5 mg/ml MTT (Thiazolyl blue) solution was added to each well and incubated for about 2 hours at 37° C. For adherent cell lines, the media was removed from each well and the resultant MTT formazan was solubilized in 100 ul of DMSO. For suspension cell lines, the MMT formazan was solubilized by direct addition of 100 ul of acidic isopropanol (0.1N HCl) to each well. The results were quantitated spectrophotometrically using a test wavelength of 570 nm and a reference wavelength of 630 nm.
(§2) Cellular Proliferation and Viability Assays. […] For quantitation of cellular proliferation, cells were fixed at appropriate time points in 4% paraformaldehyde, and all plates were stained simultaneously by using the fluorescent nucleic acid stain SYTO60 (Molecular Probes) at 1:8,000 dilution in PBS. Quantitation was done by measuring the […] at 700 nm by using the Odyssey Imaging System (LI-COR, Lincoln, Nebr.). The relative cell number was obtained by normalizing treated samples to matched untreated specimens. For quantitation of cell viability, cultures were stained after 4 days by using the MTT assay. Briefly, 10 μl of 5 mg/ml MTT (Thiazolyl blue) solution was added to each well and incubated for 2 h at 37° C. For adherent cell lines, the media was removed from each well, and the resultant MTT formazan was solubilized in 100 μl of DMSO. For nonadherent cell lines, the MTT formazan was solubilized by direct addition of 100 μl of acidic isopropanol (0.1 N HCl) to each well. The results were quantitated spectrophotometrically by using a test wavelength of 570 nm and a reference wavelength of 630 nm.

GTL16 = assay: MTT viability assay, gastric cancer cell line; type: cell-based; details: Homo sapiens, GTL 16, 96 h
Protocol: as §1, §2

HSC39 = assay: MTT viability assay, gastric cancer cell line; type: cell-based; details: Homo sapiens, 96 h
Protocol: as §1, §2

Hs738T = assay: MTT viability assay, gastric cancer cell line; type: cell-based; details: Homo sapiens, 96 h
Protocol: as §1, §2

Hs746T = assay: MTT viability assay, gastric cancer cell line; type: cell-based; details: Homo sapiens, 96 h
Protocol: as §1, §2

KATO III = assay: MTT viability assay, gastric cancer cell line; type: cell-based; details: Homo sapiens, 96 h
Protocol: as §1, §2

KATO II = assay: MTT viability assay, gastric cancer cell line; type: cell-based; details: Homo sapiens, 96 h
Protocol: as §1, §2

MKN1 = assay: MTT viability assay, gastric cancer cell line; type: cell-based; details: Homo sapiens, MKN-1, 96 h
Protocol: as §1, §2

MKN28 = assay: MTT viability assay, gastric cancer cell line; type: cell-based; details: Homo sapiens, MKN-28, 96 h
Protocol: as §1, §2

MKN45 [2] = assay: MTT viability assay, gastric cancer cell line; type: cell-based; details: Homo sapiens, MKN-45, 96 h
Protocol: as §1, §2

MKN74 = assay: MTT viability assay, gastric cancer cell line; type: cell-based; details: Homo sapiens, MKN-74, 96 h
Protocol: as §1, §2

MKN7 = assay: MTT viability assay, gastric cancer cell line; type: cell-based; details: Homo sapiens, MKN-7, 96 h
Protocol: as §1, §2

N87 = assay: MTT viability assay, gastric cancer cell line; type: cell-based; details: Homo sapiens, 96 h
Protocol: as §1, §2

SNU-16 = assay: MTT viability assay, gastric cancer cell line; type: cell-based; details: Homo sapiens, SNU-16, 96 h
Protocol: as §1, §2

SNU-1 = assay: MTT viability assay, gastric cancer cell line; type: cell-based; details: Homo sapiens, SNU1, 96 h
Protocol: as §1, §2

SNU-5 = assay: MTT viability assay, gastric cancer cell line; type: cell-based; details: Homo sapiens, SNU-5, 96 h
Protocol: as §1, §2

TMK-1 = assay: MTT viability assay, gastric cancer cell line; type: cell-based; details: Homo sapiens, TMK-1, 96 h
Protocol: as §1, §2

MKN45 [3] = assay: Drug-sensitivity screen of 40 human cancer cell lines (DNA staining, 3 days); type: cell-based; details: MKN45 gastric cancer cell line
Protocol: (§3) Cells were cultured and analyzed in triplicate within microtiter plates. Cell numbers were quantitated by DNA staining, 3 days after addition of various concentrations of drugs and expressed as a fraction of matched untreated cultures. For each drug concentration, cell lines with relative drug sensitivity (<50% of untreated control growth) are shown in darkest staining, intermediate sensitivity (50-75%) in […], and drug insensitivity (>75%) in intermediate shading.
as §2

Amp+ cells [4] = assay: Viability of gastric cancer cell lines with MET amplification (MTT); type: cell-based, human; details: 5 of 5 Amp+ gastric cancer cell lines; 96 h
Amp− cells [5] = assay: Viability of gastric cancer cell lines without MET amplification (MTT); type: cell-based, human; details: 12 of 12 Amp− gastric cancer cell lines; 96 h
Amp+ cells [6] = assay: Growth curve (SYTO60 staining); type: cell-based, human; details: 1 μM, up to 6 days
Amp− cells [7] = assay: Growth curve (SYTO60 staining); type: cell-based, human; details: 1 μM, up to 6 days
[8] = system: MET autophosphorylation (Y1234/1235) in Amp+ cells; assay: Immunoblotting of MET autophosphorylation; type: cell-based, human; details: 3 h, 50 nM
[9] = system: ERK1/2, AKT, STAT3, and FAK in Amp+ cells; assay: Immunoblotting of downstream effector phosphorylation; type: cell-based, human; details: 3 h, 50 nM
Protocol: (§4) FIG. 3: Constitutive activation of MET and activation of downstream signaling pathways in Amp^+ cells. (FIG. 3A) MET is constitutively activated in the Amp^+ cells. […] (FIG. 3B) Effect of HGF on MET activation in Amp^+ and Amp^− cells (representative immunoblots). Cells were serum-starved for 24 h and treated with 40 ng/ml HGF for 10 minutes. Phosphorylation of MET (Y1234/1235) is unaltered in Amp^+ cells treated with HGF, but it is induced by HGF in Amp^− cells (total MET control).
(§5) Cells are costained with DAPI to show nuclei.
(§6) Cells were either directly lysated in 2× sample buffer or in RIPA buffer (150 mM NaCl, 50 mM Tris pH 8.0, 1% NP40, 0.5% DOC, 0.1% SDS, 1 mM EDTA, 10 mM NaF, 1 mM Na-orthovanadate, 1× protease inhibitor cocktail (Roche; Indianapolis, Ind.)). Cell lysates were sonicated for 10 sec and cleared by centrifugation at 14,000 rpm for 10 min at 4° C. Cleared lysates were boiled in sample buffer and loaded onto 10% SDS-PAGE gel. For immunoblotting analysis, proteins were transferred onto Immobilon PVDF membrane (Millipore; Bedford, Mass.) and visualized with Western Lightning Plus chemiluminescence kit (Perkin Elmer; Boston, Mass.).

[10] = system: ERK1/2, AKT, STAT3, or FAK in Amp− cells; assay: as above; type: cell-based, human; details: 3 h
Protocol: as §4, §5, §6

Amp+ cells [11] = assay: Apoptosis induction assay (cleaved caspase-3, PARP cleavage); type: cell-based, human; details: 72 h, 1 μM (caspase-3), 500 nM (PARP)
Protocol: as §5
(§7) Cells were plated on coverslips in 12-well dishes and grown to approximately 75% confluency in 10% serum. […] After 72 h the cells were fixed with 4% paraformaldehyde for 20 minutes. Permeabilization with 1% NP40 for 5 minutes was followed by blocking with 3% BSA for 30 minutes. The coverslips were then incubated overnight at 4° C. with cleaved caspase-3 antibody at 1:200 dilution. The next day, the coverslips were washed 3 times with PBS and incubated with a secondary antibody (goat anti-rabbit FITC-conjugated) for 1 h at 1:250 dilution. Following 5 washes with PBS, coverslips were mounted in Vectashield mounting medium containing DAPI (Vector Laboratories; Burlingame, Calif.).
(§8) Apoptosis Induction Assay. […] After 72 h, cells were fixed with 4% paraformaldehyde for 20 min, permeabilized by using 1% Nonidet P-40 for 5 min, and blocked with 3% BSA for 30 min. The coverslips were then incubated overnight at 4° C. with cleaved caspase-3 antibody at 1:200 dilution. The next day, the coverslips were washed three times with PBS and incubated with a secondary antibody (goat anti-rabbit FITC-conjugated) for 1 h at 1:250 dilution. After five washes with PBS, coverslips were mounted in Vectashield mounting medium containing DAPI (Vector Laboratories), and staining was visualized by fluorescent microscopy.

Amp− cells [12] = assay: as above; type: cell-based, human; details: 72 h, identical conditions
Protocol: as §5, §7, §8

[13] = system: platelet-derived growth factor receptor; details: cited from earlier work
NCI-H1650 = assay: Drug-sensitivity screen of 40 human cancer cell lines (DNA staining, 3 days); type: cell-based; details: NCI-H1650 (EGFR del E746-A750), tested 100 nM to 10 μM
Protocol: as §3, §2

NCI-H1975 = assay: as above; type: cell-based; details: NCI-H1975 (EGFR L858R and T790M)
Protocol: as §3, §2

MET, sequence (P08581 25-1390): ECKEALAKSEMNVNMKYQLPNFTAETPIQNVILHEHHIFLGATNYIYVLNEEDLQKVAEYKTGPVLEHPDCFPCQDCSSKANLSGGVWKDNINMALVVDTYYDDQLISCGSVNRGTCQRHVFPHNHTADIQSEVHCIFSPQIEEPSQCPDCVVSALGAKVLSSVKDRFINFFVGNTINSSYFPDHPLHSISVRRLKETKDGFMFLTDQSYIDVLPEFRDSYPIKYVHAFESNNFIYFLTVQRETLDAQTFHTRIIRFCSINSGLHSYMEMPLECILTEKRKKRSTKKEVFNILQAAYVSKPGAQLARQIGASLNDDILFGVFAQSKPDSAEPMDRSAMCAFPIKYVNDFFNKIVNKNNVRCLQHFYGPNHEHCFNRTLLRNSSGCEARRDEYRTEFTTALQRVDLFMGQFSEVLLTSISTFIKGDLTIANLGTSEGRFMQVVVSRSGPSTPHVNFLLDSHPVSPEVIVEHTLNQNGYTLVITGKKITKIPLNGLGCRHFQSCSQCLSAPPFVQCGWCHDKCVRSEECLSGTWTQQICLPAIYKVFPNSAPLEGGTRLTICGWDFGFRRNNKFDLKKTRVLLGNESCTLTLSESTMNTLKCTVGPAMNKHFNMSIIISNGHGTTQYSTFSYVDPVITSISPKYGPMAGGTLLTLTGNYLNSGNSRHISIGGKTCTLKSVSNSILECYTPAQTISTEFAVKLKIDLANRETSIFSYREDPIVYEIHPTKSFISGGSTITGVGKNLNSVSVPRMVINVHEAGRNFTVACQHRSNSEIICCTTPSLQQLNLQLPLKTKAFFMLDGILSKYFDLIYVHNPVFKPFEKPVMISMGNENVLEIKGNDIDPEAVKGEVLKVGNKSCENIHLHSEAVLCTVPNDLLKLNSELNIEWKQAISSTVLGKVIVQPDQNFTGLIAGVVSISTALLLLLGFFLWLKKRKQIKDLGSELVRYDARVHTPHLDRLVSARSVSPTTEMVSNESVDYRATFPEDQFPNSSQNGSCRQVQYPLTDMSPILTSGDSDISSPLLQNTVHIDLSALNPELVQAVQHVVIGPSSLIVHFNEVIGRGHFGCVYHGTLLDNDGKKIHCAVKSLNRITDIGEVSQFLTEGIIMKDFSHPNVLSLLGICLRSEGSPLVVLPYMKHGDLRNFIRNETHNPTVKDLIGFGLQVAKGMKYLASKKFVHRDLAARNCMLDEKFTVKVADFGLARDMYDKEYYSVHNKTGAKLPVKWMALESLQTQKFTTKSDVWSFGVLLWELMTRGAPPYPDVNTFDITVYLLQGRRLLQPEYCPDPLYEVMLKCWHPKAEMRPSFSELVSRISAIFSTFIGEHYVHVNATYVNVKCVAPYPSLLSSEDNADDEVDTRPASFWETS

Which results are given for `COC(=O)[C@@]1(O)C[C@H]2O[C@]1(C)n1c3ccccc3c3c4c(c5c6ccccc6n2c5c31)C(=O)NC4` [K252a]?
Met autophosphorylation (MET): inhibits Met autophosphorylation; HGF-mediated scattering (MLP-29 cells): prevents HGF-mediated scattering; Met-driven proliferation [1]: reduces Met-driven proliferation; Met mediated transformation (NIH3T3 fibroblasts): reverses Met mediated transformation

With `Cc1[nH]c(/C=C2\C(=O)Nc3ccc(S(=O)(=O)Cc4c(Cl)cccc4Cl)cc32)c(C)c1C(=O)N1CCC[C@@H]1CN1CCCC1` [PHA-665752, (3Z)-5-[(2,6-dichlorobenzyl)sulfonyl]-3-[(3,5-dimethyl-4-{[(2R)-2-(pyrrolidin-1-ylmethyl)pyrrolidin-1-yl]carbonyl}-1H-pyrrol-2-yl)methylene]-1,3-dihydro-2H-indol-2-one] as the compound, how does the viability at 0.5 µM (AGS) read?
The viability at 0.5 µM was 99.8 ± 1.9%.

And the viability at 0.5 µM (GTL16)?
Its viability at 0.5 µM is 12.8 ± 1.2%.

What about the viability at 0.5 µM (HSC39) of the same compound?
Its viability at 0.5 µM is 92.8 ± 2.1%.

And the viability at 0.5 µM (Hs738T)?
Its viability at 0.5 µM is 100 ± 12.3%.

And the viability at 0.5 µM (Hs746T)?
The viability at 0.5 µM was 38.4 ± 1.2%.

And the viability at 0.5 µM (KATO III)?
Its viability at 0.5 µM is 105 ± 9.5%.

What about the viability at 0.5 µM (KATO II) of the same compound?
Its viability at 0.5 µM is 3.2 ± 0.3%.

And the viability at 0.5 µM (MKN1)?
Its viability at 0.5 µM is 87.5 ± 4%.

And the viability at 0.5 µM (MKN28)?
Its viability at 0.5 µM is 104 ± 4.2%.

And the viability at 0.5 µM (MKN45 [2])?
The viability at 0.5 µM was 5.8 ± 0.5%.

And the viability at 0.5 µM (MKN74)?
The viability at 0.5 µM was 89.6 ± 2.6%.

And the viability at 0.5 µM (MKN7)?
The viability at 0.5 µM was 118 ± 21.1%.

And the viability at 0.5 µM (N87)?
Its viability at 0.5 µM is 86 ± 7.4%.

What about the viability at 0.5 µM (SNU-16) of the same compound?
Its viability at 0.5 µM is 99.9 ± 1.5%.

What about the viability at 0.5 µM (SNU-1) of the same compound?
The viability at 0.5 µM was 101 ± 3.2%.

What about the viability at 0.5 µM (SNU-5) of the same compound?
The viability at 0.5 µM was 4 ± 0.2%.

And the viability at 0.5 µM (TMK-1)?
Its viability at 0.5 µM is 91.3 ± 2.1%.

What about the “Extreme sensitivity (drug concentration)” value (MKN45 [3]) of the same compound?
The value was 100 nM.

And the “effect on number of viable cells” value (Amp+ cells [4])?
Its value is “dramatic decrease in the number of viable cells; also recorded: dramatic reduction in cell numbers”.

What about the “effect on number of viable cells / proliferation” value (Amp− cells [5]) of the same compound?
The value was “resistant; also recorded: no effect”.

And the “effect on proliferation as a function of time” value (Amp+ cells [6])?
Its value is “initial arrest in proliferation, followed by cell death”.

What about the “effect on proliferation rate as a function of time” value (Amp− cells [7]) of the same compound?
Its value is “unaffected”.

And the “constitutive MET autophosphorylation” value [8]?
Its value is “effectively suppressed the constitutive MET autophosphorylation”.

And the “baseline phosphorylation of downstream effectors ERK1/2, AKT, STAT3, FAK” value [9]?
Its value is “effectively abrogated the baseline phosphorylation”.

And the “baseline phosphorylation of ERK1/2, AKT, STAT3, FAK” value [10]?
The value was “no effect on baseline phosphorylation”.

What about the induction of apoptosis (Amp+ cells [11]) of the same compound?
The induction of apoptosis was “induction of apoptosis; also recorded: demonstrated apoptosis”.

What about the induction of apoptosis (Amp− cells [12]) of the same compound?
The induction of apoptosis was “not in Amp− cells”.

What about the IC50 [13] of the same compound?
Its IC50 is greater than 10 µM.

For `COc1cc2ncnc(Nc3ccc(F)c(Cl)c3)c2cc1OCCCN1CCOCC1` [gefitinib], which “Extreme sensitivity (drug concentration)” value (NCI-H1650) is on record?
Its value is 100 nM.

What about the drug sensitivity (NCI-H1975) of the same compound?
The drug sensitivity was “relatively resistant”.
